Results published in patent US20230391779A1, “BICYCLIC COMPOUNDS, COMPOSITIONS AND USE THEREOF” (Betta Pharmaceuticals Co., Ltd., priority 2020, published 2023).

Tests used:
[1] = Pharmacokinetics in plasma following PO cassette dosing in mice; format: in vivo; conditions: mouse, Balb/C female mice, 5 mg/kg; for AUC: blood collection 30 min, 2 h, 4 h
Experimental: Adult Balb/C female mice (6-7 weeks, Vitalriver) were received to cassette dosing of the test compounds with 10-20% DMSO, 10% Solutol (Kolliphor HS 15, Beijing Fengli Jingqiu Pharmaceutical Co., Ltd.) and 80-70% H2O as excipients. The mice (n=3) were giving oral administration (intragastric administration) at a dose of 5 mg/kg. Time of blood collection: 30 min, 2 h, 4 h. About 0.1 mL of whole blood was collected from retro-orbital venous plexus, and placed into tubes that contained EDTA as an anticoagulant. The samples were centrifuged at 4° C. and 4000 rpm for 10 min. The plasma was transferred into centrifuge tubes, and stored at −20° C. before being analyzed. Concentrations of test compounds in the plasma samples were analyzed with liquid chromatography-tandem mass spectrometry (LC-MS/MS). Plasma concentration-time data of individual animals was analyzed using Microsoft Excel 2010. Non-compartmental model was introduced in concentration analysis. The pharmacokinetic parameters of the test compounds were calculated using WinNonlin (version 4.1; Pharsight) software.

TEAD-YAP/TAZ interaction = assay: CTGF ELISA assay; format: cell-based, human; conditions: CTGF in culture supernatant of NCI-H2052 cells, 24 hours with compound
Procedure, shortened: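 NCI-H2052 cells treated 24 h at 37 °C with compound (10000–0.61 nM, 0.5% DMSO); secreted CTGF in supernatant measured by sandwich ELISA (OD 450 nm) against a standard curve. EC50 fitted from CTGF concentration-response curves.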

SMILES | Cmax [1] [ng/mL] | AUC [1] [ng·h/mL] | EC50 (TEAD-YAP/TAZ interaction) [nM]
C=C(F)C(=O)N1CC(n2nc(-c3cnc(C(F)(F)F)nc3)c3cccnc32)C1 [Compound 183, 2-fluoro-1-(3-(3-(2-(trifluorometh-yl)pyrimidin-5-yl)-1H-pyrazolo-[3,4-b]pyridin-1-yl)azetidin-1-yl)-prop-2-en-1-one] | 3680 | 12800 | 
C=C(F)C(=O)N1CC(n2nc(/C=C/C3CCCCC3)c3cccnc32)C1 [compound 331, (E)-1-(3-(3-(2-cyclohexylvinyl)-1H-pyrazolo[3,4-b]pyridin-1-yl)azetidin-1-yl)-2-fluoroprop-2-en-1-one] | 1760 | 5730 | 
C=C(F)C(=O)N1CC(n2nc(C#CC3CCCC3)c3cccnc32)C1 [compound 312, 1-(3-(3-(cyclopentylethynyl)-1H-pyrazolo[3,4-b]pyridin-1-yl)azetidin-1-yl)-2-fluoroprop-2-en-1-one] | 2080 | 5790 | 
C=CC(=O)NC1CN(c2nc(-c3ccc(C(F)(F)F)cc3)nc3ccccc23)C1 [compound 268, N-(1-(2-(4-(trifluoromethyl)phenyl)quinazolin-4-yl)azetidin-3-yl)acrylamide] | 1690 | 6100 | 
C=C(F)C(=O)N1CC(n2nc(-c3ccc(C(F)(F)F)cc3F)c3cccnc32)C1 [Compound 128, 2-fluoro-1-(3-(3-(2-fluoro-4-(trifluoromethyl)phenyl)-1H-pyrazolo[3,4-b]pyridin-1-yl)-azetidin-1-yl)prop-2-en-1-one] | 5270 | 19300 | 9
C=C(F)C(=O)NC1CN(c2nc(-c3ccc(C(F)(F)F)cc3)nc3ccccc23)C1 [compound 269, 2-fluoro-N-(1-(2-(4-(trifluoromethyl)phenyl)quinazolin-4-yl)azetidin-3-yl)acrylamide] | 1250 | 4370 | 
C=CC(=O)N1CCC(n2nc(-c3ccc(C(F)(F)F)cc3)c3cccnc32)C1 (stereo not shown) [Compound 21, 1-(3-(3-(4-(trifluoromethyl)phen-yl)-1H-pyrazolo[3,4-b]pyridin-1-yl)pyrrolidin-1-yl)prop-2-en-1-one] | 1060 | 3150 | 11
C=C(F)C(=O)N1CC(n2nc(-c3ccc(C(F)(F)F)cc3F)c3ncccc32)C1 [Compound 130, 2-fluoro-1-(3-(3-(2-fluoro-4-(trifluoromethyl)phenyl)-1H-pyrazolo[4,3-b]pyridin-1-yl)-azetidin-1-yl)prop-2-en-1-one] | 1960 | 7110 | 4
C=C(F)C(=O)N1CC(n2nc(-c3ccc(C(F)(F)F)nc3C)c3cccnc32)C1 [Compound 182, 2-fluoro-1-(3-(3-(2-methyl-6-(trifluoromethyl)pyridin-3-yl)-1H-pyrazolo[3,4-b]pyridin-1-yl)azetidin-1-yl)prop-2-en-1-one] | 2160 | 7410 | 0.394
C=CC(=O)N1CCC(n2nc(-c3ccc(C(F)(F)F)nc3)c3cccc(C(=O)NC4CC(F)(F)C4)c32)C1 (stereo not shown) [Compound 104, 1-(1-acryloylpyrrolidin-3-yl)-N-(3,3-difluorocyclobutyl)-3-(6-(trifluoromethyl)pyridin-3-yl)-1H-indazole-7-carboxamide] | 1520 | 5060 | 14
C=CC(=O)N1CCC(n2nc(-c3ccc(C(F)(F)F)cc3)c3ccc(C)cc32)C1 (stereo not shown) [Compound 47, 1-(3-(6-methyl-3-(4-(trifluoro-methyl)phenyl)-1H-indazol-1-yl)-pyrrolidin-1-yl)prop-2-en-1-one] | 721 | 2510 | 15
C=C(F)C(=O)N1CC(n2nc(/C=C/c3ccccc3)c3cccnc32)C1 [compound 308] | 2610 | 9110 | 
C=C(F)C(=O)N1CC(n2nc(-c3ccc(C(F)(F)F)cc3)c3ncn(CC)c(=O)c32)C1 [Compound 218, 6-ethyl-1-(1-(2-fluoroacryloyl)-azetidin-3-yl)-3-(4-(trifluoro-methyl)phenyl)-1,6-dihydro-7H-pyrazolo[4,3-d]pyrimidin-7-one] | 1190 | 3780 | 0.7
C=CC(=O)NC1CN(c2nc(-c3ccc(C(F)(F)F)cc3)nc3cccnc23)C1 [compound 281, N-(1-(2-(4-(trifluoromethyl)phenyl)pyrido[3,2-d]pyrimidin-4-yl)azetidin-3-yl)acrylamide] | 1190 | 4200 | 
C=C(F)C(=O)N1CC(n2c(=O)n(-c3ccc(C(F)(F)F)cc3)c3ccc(C)nc32)C1 [Compound 242, 3-(1-(2-fluoroacryloyl)azetidin-3-yl)-5-methyl-1-(4-(trifluoromethyl)phenyl)-1,3-dihydro-2H-imidazo[4,5-b]pyridin-2-one] | 1770 | 5410 | 10
C=CC(=O)N1CCC(n2nc(-c3ccc(C(F)(F)F)cc3)c3ncccc32)C1 (stereo not shown) [Compound 26, 1-(3-(3-(4-(trifluoromethyl)phen-yl)-1H-pyrazolo[4,3-b]pyridin-1-yl)pyrrolidin-1-yl)prop-2-en-1-one] | 1420 | 4640 | 3.6
C=C(F)C(=O)N1CC(n2c(=O)n(-c3ccc(C(F)(F)F)cc3)c3ccccc32)C1 [Compound 229, 1-(1-(2 fluoroacryloyl)azetidin-3 yl)-3-(4-(trifluoromethyl)phenyl)-1,3-dihydro-2H-benzo[d]imidazol-2-one] | 1040 | 3840 | 20
C=CC(=O)N1CCC(n2nc(-c3ccc(C(F)(F)F)cc3)c3cc(Cl)cnc32)C1 (stereo not shown) [Compound 108, 1-(3-(5-chloro-3-(4-(trifluoro-methyl)phenyl)-1H-pyrazolo[3,4-b]pyridin-1-yl)pyrrolidin-1-yl)-prop-2-en-1-one] | 1200 | 3500 | 12
C=C(F)C(=O)N1CC(n2c(=O)n(-c3ccc(C(F)(F)F)cc3)c3nccnc32)C1 [Compound 240, 1-(1-(2-fluoroacryloyl)azetidin-3-yl)-3-(4-(trifluoromethyl)phenyl)-1,3-dihydro-2H-imidazo[4,5-b]pyrazin-2-one] | 1600 | 5880 | 1.3
C=C(F)C(=O)N1CC(n2nc(-c3ccc(OC(F)(F)F)cc3)c3cccnc32)C1 [Compound 172, 2-fluoro-1-(3-(3-(4-(trifluoro-methoxy)phenyl)-1H-pyrazolo-[3,4-b]pyridin-1-yl)azetidin-1-yl)prop-2-en-1-one] | 1650 | 1650 | 0.4
C=CC(=O)N1CCC(n2nc(-c3ccc(C(F)(F)F)cc3)c3nc(OC)ccc32)C1 (stereo not shown) [Compound 89, 1-(3-(5-methoxy-3-(4-(trifluoro-methyl)phenyl)-1H-pyrazolo[4,3-b]pyridin-1-yl)pyrrolidin-1-yl)-prop-2-en-1-one] | 1970 | 6480 | 12
C=C(F)C(=O)N1CC(n2c(=O)n(-c3ccc(C(F)(F)F)nc3)c3nccnc32)C1 [Compound 241, 1-(1-(2-fluoroacryloyl)azetidin-3-yl)-3-(6-(trifluoromethyl)pyridin-3-yl)-1,3-dihydro-2H-imidazo[4,5-b]pyrazin-2-one] | 2530 | 8260 | 
C=CC(=O)N1CCC(n2nc(-c3ccc(C(F)(F)F)cn3)c3ccccc32)C1 (stereo not shown) [Compound 58, 1-(3-(3-(5-(trifluoromethyl)pyr-idin-2-yl)-1H-indazol-1-yl)pyrrol-idin-1-yl)prop-2-en-1-one] | 1580 | 4470 | 17
C=C(F)C(=O)N1CC(n2c(=O)n(-c3ccc(C(F)(F)F)nc3)c3ccc(C)nc32)C1 [Compound 243, 3-(1-(2-fluoroacryloyl)azetidin-3-yl)-5-methyl-1-(6-(trifluoromethyl)pyridin-3-yl)-1,3-dihydro-2H-imidazo[4,5-b]pyridin-2-one] | 1210 | 4010 | 28
C=C(F)C(=O)N1CC(n2nc(C#Cc3ccccc3)c3cccnc32)C1 [compound 307] | 2710 | 8480 | 
C=C(F)C(=O)N1CC(n2nc(-c3ccc(C(F)(F)F)cc3)c3cc(F)cnc32)C1 [Compound 202, 2-fluoro-1-(3-(5-fluoro-3-(4-(trifluoromethyl)phenyl)-1H-pyrazolo[3,4-b]pyridin-1-yl)-azetidin-1-yl)prop-2-en-1-one] |  |  | 8.1
C=CC(=O)N1CCC(n2nc(-c3ccc(C(F)(F)F)nc3)c3cccc(C(=O)NC4CC4)c32)C1 (stereo not shown) [Compound 100, 1-(1-acryloylpyrrolidin-3-yl)-N-cyclopropyl-3-(6-(trifluorometh-yl)pyridin-3-yl)-1H-indazole-7-carboxamide] |  |  | 50
C=C(C)C(=O)N1CC(n2nc(-c3ccc(C(F)(F)F)cc3)c3ncccc32)C1 [Compound 87, 2-methyl-1-(3-(3-(4-(trifluoro-methyl)phenyl)-1H-pyrazolo[4,3-b]pyridin-1-yl)azetidin-1-yl)prop-2-en-1-one] |  |  | 7
C=C(F)C(=O)N1CC(n2nc(-c3ccc(C(F)(F)F)cc3)c3nccnc32)C1 [Compound 160, 2-fluoro-1-(3-(3-(4-(trifluoro-methyl)phenyl)-1H-pyrazolo[3,4-b]pyrazin-1-yl)azetidin-1-yl)prop-2-en-1-one] |  |  | 9
